According to US20160108431A1, “PREVENTION AND TREATMENT OF ATRIAL FIBRILLATION” (ISIS INNOVATION LIMITED, priority 2013, published 2016):
“Also recorded” adds a separate entry of the source. Where a SMILES comes first, the peptide text is derived from it. The star is where a group is joined. Cbz = O=C(OCc1ccccc1)*

Key:
human RA myocytes = assay: Action potential duration (APD) and APD rate adaptation in isolated human right atrial myocytes; type: cell-based
Description: All abbreviations are as defined in FIG. 1.
9b. […] Representative AP traces in RA myocytes from patients in SR exposed to 2 doses of 4-AP in the presence or absence of nNOS inhibition with SMTC.
A shorter APD leads to reduced atrial refractoriness and promote AF sustainability. […] These findings indicate that loss of myocardial nNOS signalling is sufficient to produce an atrial electrical substrate that increases both the inducibility and maintenance of AF.

nNOS protein [1] = assay: nNOS protein in human atrial tissue in AF after inhibition of the proteosomal system or autophagy; type: cell-based; conditions: human RA, MG132 5 μmol/L, bafilomycin 25 nmol/L
Procedure: In the presence of AF, ubiquitination of nNOS protein is increased in human atrial tissue as shown by immunoprecipitation. Protein load of AF samples was increased to match the nNOS content to that seen in SR; n=6 (a). […] All abbreviations are as defined in FIG. 1.
In the skeletal muscle, nNOS protein stability is determined by the enzyme's anchoring to the dystrophin-syntrophin complex. We found a reduction in dystrophin (FIG. 4c, 4d, 4f) and dystrophin-associated proteins (e.g., caveolin-3 and α1-syntrophin, 4c, 4e), and a disruption of the dystrophin-nNOS complex in AF (FIG. 4a, 4b). In humans, atrial nNOS and dystrophin were strongly correlated (FIG. 4g), in keeping with the notion that disruption of the dystrophin-syntrophin complex promotes ubiquitin-dependent nNOS degradation in AF.

dystrophin (DYS) protein = assay: Dystrophin protein content (immunoblot) in transfected human atrial myocytes; type: cell-based
[2] = system: nNOS mRNA on the RISC complex; assay: Ribonucleoprotein immunoprecipitation with Ago2 (RISC), nNOS mRNA; type: cell-based, human; conditions: RA myocytes from AF patients; TSB 20 nM, 48-72 hours; normalized to miR31 in RISC
Procedure: 12a-b. (a) Immunoprecipitation of the RNA-induced silencing effector complex (RISC) protein, Argonaut 2 (Ago2) in RAA myocytes isolated from patients with AF transiently (48-72 hours) transfected with 20 nM of an locked nucleic acids (LNA)-based miR31 target site blocker (TSB, Exiqon) or with corresponding scrambled control (scr, 20 nM, Exiqon). Further details on the sequence of the TSB and scr control, also see FIG. 13). Molecular weight is shown in kilodalton (kDa); Rb IgG—rabbit immunoglobulin G (as negative control); IP—immunoprecipitation, IB—immunoblotting. (b) miR31 expression is unchanged in Ago2 immunoprecipitates from RAA human myocytes.
12c-f. (c) Sequence of the mature human miR31 (hsa-miR31), 23-nucleotide region of the human DYS-3′UTR, the miR31 hairpin inhibitor (anti-miR31, miRIDIAN, Dharmacon) and the 18-nucleotide-long locked nucleic acids (LNA)-based Target Site Blocker (TSB) covering the miR31-binding site on the DYS-3′UTR (TSB_DYS). (d) Sequences of the mature hsa-miR-31, 23-nucleotide region of the human nNOS-3′UTR, the anti-miR31 (miRIDIAN, Dharmacon) and the 18-nucleotide-long TSB covering the miR31-binding site on the nNOS 3′UTR (TSB_nNOS). The miR-31 seed sequence is in grey. […]
(§1) The corresponding mRNA stability was assessed in the presence of a miR-31 mimic (10 nM) in SR myocytes treated with the transcription inhibitor, actinomycin D (5 μg/ml).

DYS mRNA [3] = assay: DYS mRNA (gene expression) in transfected human atrial myocytes; type: cell-based; conditions: for DYS mRNA (expression): SR myocytes, mimic 10 nM, 72 hours (FIG. 10)
Description: (§2) By contrast, treatment with miR31 mimic has no effect on the DYS mRNA in either SR (n=12) or AF (n=10). *P<0.05, **P<0.01 ***P<0.001 vs controls in SR and #P<0.05, ##P[…], ###P<0.001 vs negative control (NC) using 1-way ANOVA with Bonferroni correction. Dystrophin and nNOS gene expression were normalized to GAPDH.
(§3) 12g-m. […] By contrast, miR31 mimic has no effect on the decay of the DYS mRNA (h).

nNOS protein [4] = assay: nNOS protein content (immunoblot) in transfected human atrial myocytes; type: cell-based
Description: (§4) RQ—relative quantification, DYS—dystrophin; all other abbreviations are as defined in FIG. 1.
as §2, §3

nNOS mRNA [5] = assay: nNOS mRNA (gene expression) in transfected human atrial myocytes; type: cell-based
Description: as §2, §3

human nNOS 3′UTR = assay: GFP reporter assay in HEK293 cells, nNOS 3′UTR constructs; type: cell-based; conditions: HEK293, co-transfected 48 hours, mimic 10 nM
Procedure: 11a. Predicted conserved (site 1) and poorly conserved (sites 2, 3, 4 and 5) miR31-5p binding sites on the human nNOS 3′UTR.
11b. HEK293 cells were co-transfected (48 hours) with reporter constructs containing 2 fragments (˜500 bp) of the nNOS 3′UTR region containing the mir31 binding putative sites (Part1, site 1 & 2 and Part2, sites 3, 4 & 5) and a miR31 mimic (10 nM, miRIDIAN, Dharmacon). […] Further analysis of Part 2, identified site 5 as the functional mir31 site on the nNOS 3′ UTR.

DYS 3′UTR = assay: GFP reporter assay in HEK293 cells, DYS 3′UTR construct; type: cell-based, human; conditions: HEK293, co-transfected 48 hours
Procedure: 11c. HEK293 cells were co-transfected (48 hours) with reporter constructs containing the DYS 3′UTR region containing the mir31 binding putative site. […] Reporter assays were performed in triplicates and are representative of at least 3 independent experiments. ###P<0.001 vs vehicle, repeated-measure ANOVA with Bonferroni correction.

miR-31 = miR-31 expression in transfected isolated human atrial myocytes; type: cell-based; conditions: for miR31 levels: RAA myocytes; for miR-31 expression: 20 nM, 48-72 hours
Description: as §4
8a. […] Data are expressed as fold change to the controls in SR.
as §2
We hypothesised that a microRNA-mediated translational repression of dystrophin in AF may account for the loss of myocardial nNOS and constitute a novel mechanism underlying AF-induced electrical remodelling.

DYS mRNA [6] = assay: DYS mRNA stability in the presence of actinomycin D; type: cell-based, human; conditions: SR myocytes; actinomycin D 5 μg/ml; mimic 10 nM; listed as miR31 mimic
Procedure: as §3, §1

nNOS mRNA [7] = assay: nNOS mRNA stability in the presence of actinomycin D; type: cell-based, human; conditions: SR myocytes; actinomycin D 5 μg/ml; mimic 10 nM
Procedure: as §3, §1

[8] = myocytes from patients with AF, 20 nM, 48-72 hours
[9] = myocytes from patients with AF, 20 nM, 48-72 hours, listed as nNOS-TSB
[10] = SR myocytes, mimic 10 nM, 72 hours (FIG. 10), listed as miR31 mimic
[11] = SR myocytes, mimic 10 nM, 72 hours (FIG. 10), listed as miRIDIAN miR-31 mimic
[12] = myocytes from patients in SR, 20 nM, 48-72 hours
[13] = SR myocytes, mimic 10 nM, 72 hours

Nc1ccncc1 [4-AP]
APD (human RA myocytes; RA myocytes from patients in SR, 2 doses of 4-AP (100 and 500)): prolong APD | difference in APD induced by SMTC (human RA myocytes; RA myocytes from patients in SR, 4-AP 100 and 500, with or without SMTC): abolish the difference in APD induced by SMTC | APD rate dependent adaptation (human RA myocytes; human RA myocytes, 4-AP): restores the APD rate dependent adaptation

CC(C)C[C@@H](C=O)NC(=O)[C@H](CC(C)C)NC(=O)[C@H](CC(C)C)NC(=O)OCc1ccccc1 [MG132] (Cbz-Leu-Leu-Leu-aldehyde)
nNOS protein content (nNOS protein [1]): partially restores nNOS protein; also recorded: partially restored nNOS content

CO/C1=C\C(C)=C\[C@@H](C)[C@@H](O)[C@@H](C)C/C(C)=C/C=C/[C@H](OC)[C@@H]([C@@H](C)[C@@H](O)[C@H](C)[C@@]2(O)C[C@@H](O)[C@H](C)[C@@H](C(C)C)O2)OC1=O [bafilomycin A1]
nNOS protein content (nNOS protein [1]; listed as bafilomycin): had no effect

TSB_nNOS: 18-nucleotide-long TSB covering the miR31-binding site on the nNOS 3′UTR (LNA-based, Exiqon) (DNA TGGCAAGAATGAAAAGGC; LNA-based target site blocker, LNA pattern not given here)
dystrophin (DYS) protein content (dystrophin (DYS) protein; [8]): without affecting | loading of nNOS mRNA on the RISC complex (Ago2 immunoprecipitation) [2]: selectively prevented loading; also recorded: reduction | DYS mRNA (DYS mRNA [3]; [8]): without affecting | nNOS protein content (nNOS protein [4]; [8]): partially recovered nNOS protein | nNOS protein content (nNOS protein [4]; [9]): recovered nNOS | nNOS mRNA (gene expression) (nNOS mRNA [5]; [8]): increased nNOS mRNA | nNOS mRNA (gene expression) (nNOS mRNA [5]; [9]): significantly increased

miR-31 mimic: miRIDIAN miR-31 mimic (Dharmacon) (AGGCAAGATGCTGGCATAGCT; listed as DNA, chemistry not given here)
GFP fluorescence, wild type (WT) Part 2 nNOS 3′UTR construct (human nNOS 3′UTR): reduction in miR31-mediated GFP fluorescence | reduction in GFP fluorescence, mutated (Mut) nNOS 3′UTR constructs lacking miR31 binding site (human nNOS 3′UTR): abolished | dystrophin protein (dystrophin (DYS) protein; AF myocytes, mimic (FIG. 10)): reduces | dystrophin (DYS) protein content (dystrophin (DYS) protein; [10]): reduces | dystrophin (DYS) protein content (dystrophin (DYS) protein; [11]): reduced | dystrophin (DYS) protein content (dystrophin (DYS) protein; [12]): dramatically reduced | dystrophin (DYS) protein content (dystrophin (DYS) protein; [8]): dramatically reduced | GFP fluorescence, wild type (WT) DYS 3′UTR construct (DYS 3′UTR): reduction in miR31-mediated GFP fluorescence | reduction in GFP fluorescence, mutated (Mut) DYS 3′UTR constructs lacking miR31 binding site (DYS 3′UTR): abolished | miR31 levels (miR-31; AF, mimic (FIG. 10)): increases mir31 levels | miR31 levels (miR-31; SR, mimic 10 nM, 72 hours (FIG. 10)): increases mir31 levels | miR-31 expression (miR-31; myocytes from patients in SR): upregulation of miR-31 | miR-31 expression (miR-31; myocytes from patients with AF): upregulation of miR-31 | decay of DYS mRNA (DYS mRNA [6]): has no effect | decay of nNOS mRNA (nNOS mRNA [7]): accelerated the decay of nNOS mRNA | APD (human RA myocytes; [13]): shortened APD | APD rate-dependent adaptation (human RA myocytes; [13]): abolished the APD rate-dependent adaptation | DYS mRNA (DYS mRNA [3]; AF myocytes, mimic (FIG. 10)): has no effect | DYS mRNA (expression) (DYS mRNA [3]; listed as miR31 mimic): has no effect | DYS mRNA (expression) (DYS mRNA [3]; listed as miRIDIAN miR-31 mimic): without affecting | nNOS protein (nNOS protein [4]; AF myocytes, mimic (FIG. 10)): reduces | nNOS protein content (nNOS protein [4]; [10]): reduces | nNOS protein content (nNOS protein [4]; [11]): reduced | nNOS protein content (nNOS protein [4]; [12]): dramatically reduced | nNOS protein content (nNOS protein [4]; [8]): dramatically reduced | nNOS gene expression (nNOS mRNA [5]; AF myocytes, mimic (FIG. 10)): reduces | nNOS mRNA (gene expression) (nNOS mRNA [5]; [10]): reduces | nNOS mRNA (gene expression) (nNOS mRNA [5]; [11]): reduced
